Measured values from ChEMBL document CHEMBL5375992, “Design and Development of IKZF2 and CK1α Dual Degraders” (J Med Chem, 2023).
≈ marks a conversion by molar mass, not a printed value. Calls of active or inactive are those of the source. No cut-off for these calls is given here.

Legend:
[1] = biological target: T1, Protein cereblon/Eukaryotic peptide chain release factor GTP-binding subunit ERF3A (Homo sapiens) (UniProt Q96SW2+P15170); experiment: Protac activity at CRBN/GSPT1 in human OCILY3 cells assessed as relative ratio at 10 nM incubated for 24 hrs by Western blotting analysis relative to DMSO; type: cell-based
[2] = biological target: T1, Protein cereblon/Eukaryotic peptide chain release factor GTP-binding subunit ERF3A (Homo sapiens); experiment: Protac activity at CRBN/GSPT1 in human OCILY3 cells assessed as relative ratio at 100 nM incubated for 24 hrs by Western blotting analysis relative to DMSO; type: cell-based
[3] = biological target: Cereblon/Ikaros (Homo sapiens) (UniProt Q96SW2+Q13422); experiment: Protac activity at CRBN/IKZF1 (unknown origin) transfected in HEK293T cells at 100 nM incubated for 24 hrs by flow cytometry analysis relative to control; type: cell-based
OCI-Ly3 [4] = experiment: Upregulation of p53 protein expression in human OCILY3 cells at […] incubated for 24 hrs by Western blot analysis; type: functional, cell-based
[5] = biological target: T2, Cereblon/Casein kinase I alpha (Homo sapiens) (UniProt P48729+Q96SW2); experiment: Protac activity at CRBN/CK1alpha in human MOLM-13 cells at 50 nM incubated for 2 hrs by proteomic analysis; type: cell-based
[6] = biological target: T1, Protein cereblon/Eukaryotic peptide chain release factor GTP-binding subunit ERF3A (Homo sapiens); experiment: Protac activity at CRBN/GSPT1 (unknown origin) transfected in HEK293T cells at 100 nM incubated for 24 hrs by flow cytometry analysis relative to control; type: cell-based
A2780 [7] = experiment: Upregulation of p21 transcript level in human A2780 cells at 1 uM incubated for 24 hrs by RT-qPCR analysis; type: functional, cell-based
[8] = biological target: T3, Protein cereblon/Zinc finger protein Helios (Homo sapiens) (UniProt Q96SW2+Q9UKS7); experiment: Protac activity at CRBN/IKZF2 in human A2780 cells assessed as relative ratio at 10 nM incubated for 24 hrs by Western blotting analysis relative to DMSO; type: cell-based
[9] = biological target: T1, Protein cereblon/Eukaryotic peptide chain release factor GTP-binding subunit ERF3A (Homo sapiens); experiment: Protac activity at CRBN/GSPT1 in human A2780 cells assessed as relative ratio at 10 nM incubated for 24 hrs by Western blotting analysis relative to DMSO; type: cell-based
OCI-Ly3 [10] = experiment: Upregulation of MDM2 protein expression in human OCILY3 cells at […] incubated for 24 hrs by Western blot analysis; type: functional, cell-based
[11] = biological target: T1, Protein cereblon/Eukaryotic peptide chain release factor GTP-binding subunit ERF3A (Homo sapiens); experiment: Protac activity at CRBN/GSPT1 in human A2780 cells assessed as relative ratio at 100 nM incubated for 24 hrs by Western blotting analysis relative to DMSO; type: cell-based
[12] = biological target: T1, Protein cereblon/Eukaryotic peptide chain release factor GTP-binding subunit ERF3A (Homo sapiens); experiment: Protac activity at CRBN/GSPT1 in human A2780 cells assessed as relative ratio at 1 uM incubated for 24 hrs by Western blotting analysis relative to DMSO; type: cell-based
[13] = biological target: T2, Cereblon/Casein kinase I alpha (Homo sapiens); experiment: Protac activity at CRBN/CK1alpha in human OCILY3 cells assessed as relative ratio at 10 uM incubated for 24 hrs by Western blotting analysis relative to DMSO; type: cell-based
[14] = biological target: T2, Cereblon/Casein kinase I alpha (Homo sapiens); experiment: Protac activity at CRBN/CK1alpha in human A2780 cells assessed as relative ratio at 1 nM incubated for 24 hrs by Western blotting analysis relative to DMSO; type: cell-based
A2780 [15] = experiment: Upregulation of p53 protein expression in human A2780 cells at […] incubated for 24 hrs by Western blot analysis; type: functional, cell-based
OCI-Ly3 [16] = experiment: Cytotoxicity against human OCILY3 cells incubated for 5 days by MTT assay; type: functional, cell-based; conditions: OCI-Ly3, 120 h
[17] = biological target: T2, Cereblon/Casein kinase I alpha (Homo sapiens); experiment: Protac activity at CRBN/CK1alpha in human OCILY3 cells assessed as relative ratio at 100 nM incubated for 24 hrs by Western blotting analysis relative to DMSO; type: cell-based
[18] = biological target: T3, Protein cereblon/Zinc finger protein Helios (Homo sapiens); experiment: Protac activity at CRBN/IKZF2 (unknown origin) transfected in HEK293T cells at 100 nM incubated for 24 hrs by flow cytometry analysis relative to control; type: cell-based
[19] = biological target: T3, Protein cereblon/Zinc finger protein Helios (Homo sapiens); experiment: Protac activity at CRBN/IKZF2 in human A2780 cells assessed as relative ratio at 10 uM incubated for 24 hrs by Western blotting analysis relative to DMSO; type: cell-based
[20] = biological target: T3, Protein cereblon/Zinc finger protein Helios (Homo sapiens); experiment: Protac activity at CRBN/IKZF2 in human A2780 cells assessed as relative ratio at 1 uM incubated for 24 hrs by Western blotting analysis relative to DMSO; type: cell-based
[21] = biological target: T3, Protein cereblon/Zinc finger protein Helios (Homo sapiens); experiment: Protac activity at CRBN/IKZF2 in human A2780 cells assessed as relative ratio at 1 nM incubated for 24 hrs by Western blotting analysis relative to DMSO; type: cell-based
[22] = biological target: T2, Cereblon/Casein kinase I alpha (Homo sapiens); experiment: Protac activity at CRBN/CK1alpha in human OCILY3 cells assessed as relative ratio at 10 nM incubated for 24 hrs by Western blotting analysis relative to DMSO; type: cell-based
OCI-Ly3 [23] = experiment: Upregulation of p21 protein expression in human OCILY3 cells at […] incubated for 24 hrs by Western blot analysis; type: functional, cell-based
[24] = biological target: T2, Cereblon/Casein kinase I alpha (Homo sapiens); experiment: Protac activity at CRBN/CK1alpha (unknown origin) transfected in HEK293T cells at 100 nM incubated for 24 hrs by flow cytometry analysis relative to control; type: cell-based
[25] = biological target: T1, Protein cereblon/Eukaryotic peptide chain release factor GTP-binding subunit ERF3A (Homo sapiens); experiment: Protac activity at CRBN/GSPT1 in human OCILY3 cells assessed as relative ratio at 10 uM incubated for 24 hrs by Western blotting analysis relative to DMSO; type: cell-based
OCI-Ly3 [26] = experiment: Upregulation of p21 transcript level in human OCILY3 cells at 1 uM incubated for 24 hrs by RT-qPCR analysis; type: functional, cell-based
A2780 [27] = experiment: Upregulation of Bax protein expression in human A2780 cells at […] incubated for 24 hrs by Western blot analysis; type: functional, cell-based
A2780 [28] = experiment: Upregulation of p21 protein expression in human A2780 cells at […] incubated for 24 hrs by Western blot analysis; type: functional, cell-based
A2780 [29] = experiment: Cytotoxicity against human A2780 cells incubated for 5 days by MTT assay; type: functional, cell-based; conditions: A2780, 120 h
[30] = biological target: T1, Protein cereblon/Eukaryotic peptide chain release factor GTP-binding subunit ERF3A (Homo sapiens); experiment: Protac activity at CRBN/GSPT1 in human OCILY3 cells assessed as relative ratio at 1 uM incubated for 24 hrs by Western blotting analysis relative to DMSO; type: cell-based
[31] = Solubility of compound in DMSO; type: physicochemical; conditions: DMSO; read-out: solubility
A2780 [32] = experiment: Upregulation of MDM2 protein expression in human A2780 cells at […] incubated for 24 hrs by Western blot analysis; type: functional, cell-based
[33] = biological target: T2, Cereblon/Casein kinase I alpha (Homo sapiens); experiment: Protac activity at CRBN/CK1alpha in human A2780 cells assessed as relative ratio at 10 nM incubated for 24 hrs by Western blotting analysis relative to DMSO; type: cell-based
[34] = biological target: T2, Cereblon/Casein kinase I alpha (Homo sapiens); experiment: Protac activity at CRBN/CK1alpha in human A2780 cells assessed as relative ratio at 1 uM incubated for 24 hrs by Western blotting analysis relative to DMSO; type: cell-based
[35] = biological target: T1, Protein cereblon/Eukaryotic peptide chain release factor GTP-binding subunit ERF3A (Homo sapiens); experiment: Protac activity at CRBN/GSPT1 in human OCILY3 cells assessed as relative ratio at 1 nM incubated for 24 hrs by Western blotting analysis relative to DMSO; type: cell-based
[36] = biological target: T2, Cereblon/Casein kinase I alpha (Homo sapiens); experiment: Protac activity at CRBN/CK1alpha in human A2780 cells assessed as relative ratio at 100 nM incubated for 24 hrs by Western blotting analysis relative to DMSO; type: cell-based
[37] = biological target: T3, Protein cereblon/Zinc finger protein Helios (Homo sapiens); experiment: Protac activity at CRBN/IKZF2 in human A2780 cells assessed as relative ratio at 100 nM incubated for 24 hrs by Western blotting analysis relative to DMSO; type: cell-based
OCI-Ly3 [38] = experiment: Upregulation of Bax transcript level in human OCILY3 cells at 1 uM incubated for 24 hrs by RT-qPCR analysis; type: functional, cell-based
[39] = biological target: T2, Cereblon/Casein kinase I alpha (Homo sapiens); experiment: Protac activity at CRBN/CK1alpha in human OCILY3 cells assessed as relative ratio at 1 uM incubated for 24 hrs by Western blotting analysis relative to DMSO; type: cell-based
[40] = biological target: T1, Protein cereblon/Eukaryotic peptide chain release factor GTP-binding subunit ERF3A (Homo sapiens); experiment: Protac activity at CRBN/GSPT1 in human NCI-H1048 cells at 10 to 100 nM incubated for 24 hrs by Western blotting analysis; type: cell-based; conditions: dose 10-100 nM
[41] = biological target: T2, Cereblon/Casein kinase I alpha (Homo sapiens); experiment: Protac activity at CRBN/CK1alpha in human A2780 cells assessed as relative ratio at 10 uM incubated for 24 hrs by Western blotting analysis relative to DMSO; type: cell-based
OCI-Ly3 [42] = experiment: Upregulation of Bax protein expression in human OCILY3 cells at […] incubated for 24 hrs by Western blot analysis; type: functional, cell-based
[43] = biological target: T2, Cereblon/Casein kinase I alpha (Homo sapiens); experiment: Protac activity at CRBN/CK1alpha in human OCILY3 cells assessed as relative ratio at 1 nM incubated for 24 hrs by Western blotting analysis relative to DMSO; type: cell-based
[44] = biological target: T1, Protein cereblon/Eukaryotic peptide chain release factor GTP-binding subunit ERF3A (Homo sapiens); experiment: Protac activity at CRBN/GSPT1 in human A2780 cells assessed as relative ratio at 1 nM incubated for 24 hrs by Western blotting analysis relative to DMSO; type: cell-based
A2780 [45] = experiment: Upregulation of Bax transcript level in human A2780 cells at 1 uM incubated for 24 hrs by RT-qPCR analysis; type: functional, cell-based
[46] = biological target: T1, Protein cereblon/Eukaryotic peptide chain release factor GTP-binding subunit ERF3A (Homo sapiens); experiment: Protac activity at CRBN/GSPT1 in human A2780 cells assessed as relative ratio at 10 uM incubated for 24 hrs by Western blotting analysis relative to DMSO; type: cell-based

T3 sequence (Q96SW2 whole entry, looked up): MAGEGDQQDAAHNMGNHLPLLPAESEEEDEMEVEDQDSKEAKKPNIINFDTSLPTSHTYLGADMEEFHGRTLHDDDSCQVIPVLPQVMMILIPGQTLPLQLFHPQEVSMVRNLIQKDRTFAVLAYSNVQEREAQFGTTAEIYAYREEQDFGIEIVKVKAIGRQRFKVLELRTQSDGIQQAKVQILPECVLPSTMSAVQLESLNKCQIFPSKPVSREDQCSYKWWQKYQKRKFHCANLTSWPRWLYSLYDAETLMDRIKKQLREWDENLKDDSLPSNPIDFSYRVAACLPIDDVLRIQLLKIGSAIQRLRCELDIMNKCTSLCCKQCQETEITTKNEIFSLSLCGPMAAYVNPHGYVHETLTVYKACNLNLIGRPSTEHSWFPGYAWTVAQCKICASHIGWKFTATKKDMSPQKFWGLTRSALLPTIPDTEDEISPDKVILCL
T3 sequence (Q9UKS7 whole entry, looked up): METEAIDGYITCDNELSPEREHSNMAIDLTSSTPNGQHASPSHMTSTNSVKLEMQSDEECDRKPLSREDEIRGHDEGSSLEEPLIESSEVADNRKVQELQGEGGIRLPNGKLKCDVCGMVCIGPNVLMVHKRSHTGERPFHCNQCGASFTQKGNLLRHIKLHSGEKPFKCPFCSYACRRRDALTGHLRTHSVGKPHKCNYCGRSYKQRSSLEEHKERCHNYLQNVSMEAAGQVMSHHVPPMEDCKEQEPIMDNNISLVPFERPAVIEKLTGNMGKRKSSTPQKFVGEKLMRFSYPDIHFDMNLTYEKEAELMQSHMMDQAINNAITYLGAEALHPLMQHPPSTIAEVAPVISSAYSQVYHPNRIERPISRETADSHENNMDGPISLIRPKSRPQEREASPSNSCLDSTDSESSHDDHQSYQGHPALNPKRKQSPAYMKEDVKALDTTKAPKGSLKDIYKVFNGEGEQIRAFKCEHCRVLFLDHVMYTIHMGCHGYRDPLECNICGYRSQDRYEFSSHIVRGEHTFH
T1 sequence (P15170 whole entry, looked up): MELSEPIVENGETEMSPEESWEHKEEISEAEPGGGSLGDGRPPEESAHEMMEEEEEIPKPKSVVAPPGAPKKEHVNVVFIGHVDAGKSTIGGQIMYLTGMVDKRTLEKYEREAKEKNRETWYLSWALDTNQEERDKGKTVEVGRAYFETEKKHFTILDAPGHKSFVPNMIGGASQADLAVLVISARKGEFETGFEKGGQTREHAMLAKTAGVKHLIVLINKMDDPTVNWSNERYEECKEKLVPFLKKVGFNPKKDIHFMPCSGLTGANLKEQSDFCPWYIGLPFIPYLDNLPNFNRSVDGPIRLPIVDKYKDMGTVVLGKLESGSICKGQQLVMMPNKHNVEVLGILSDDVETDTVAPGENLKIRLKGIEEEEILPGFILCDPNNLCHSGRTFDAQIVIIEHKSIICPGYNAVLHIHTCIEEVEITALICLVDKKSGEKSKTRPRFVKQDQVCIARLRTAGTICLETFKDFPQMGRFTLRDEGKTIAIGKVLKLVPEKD
T1 sequence (Q96SW2 whole entry, looked up): as the sequence (Q96SW2 whole entry, looked up) above
T2 sequence (P48729 2-337 limits assumed): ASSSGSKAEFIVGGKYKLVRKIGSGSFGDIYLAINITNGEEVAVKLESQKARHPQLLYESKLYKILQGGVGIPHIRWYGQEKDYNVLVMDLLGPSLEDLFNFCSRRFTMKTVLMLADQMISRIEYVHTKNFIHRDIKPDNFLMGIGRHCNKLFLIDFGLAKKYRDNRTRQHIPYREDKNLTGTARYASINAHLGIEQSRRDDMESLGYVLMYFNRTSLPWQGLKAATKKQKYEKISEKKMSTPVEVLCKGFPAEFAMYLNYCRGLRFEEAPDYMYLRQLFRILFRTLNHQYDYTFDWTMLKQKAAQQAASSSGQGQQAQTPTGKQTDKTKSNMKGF
T2 sequence (Q96SW2 whole entry partner): as the sequence (Q96SW2 whole entry, looked up) above

- Ratio [1]: 0.67
- Ratio [2]: 0.65
- Activity [3]: 11%
- Activity [5]: Active
- Activity [6]: 4%
- Ratio [8]: 0.77
- Ratio [9]: 0.9
- Ratio [11]: 0.9
- Ratio [12]: 1
- Ratio [13]: 0.27
- Ratio [14]: 0.5
- Ratio [17]: 0.25
- Activity [18]: 82%
- Ratio [19]: 0.06
- Ratio [20]: 0.08
- Ratio [21]: 1
- Ratio [22]: 0.28
- Activity [24]: 80%
- Ratio [25]: 0.8
- Ratio [30]: 0.73
- solubility [31]: 50 mM (≈ 22.4 mg/mL)
- Ratio [33]: 0.22
- Ratio [34]: 0.17
- Ratio [35]: 0.83
- Ratio [36]: 0.18
- Ratio [37]: 0.24
- Ratio [39]: 0.26
- Activity [40]: inactive
- Ratio [41]: 0.17
- Ratio [43]: 0.63
- Ratio [44]: 0.96
- Ratio [46]: 1
Compound: COc1cccc2c1OCC(C(=O)Nc1ccc3c(c1)CN(C1CCC(=O)NC1=O)C3=O)=C2 (stereo unspecified)
- Activity (OCI-Ly3 [4]): Active
- Activity (A2780 [7]): Active
- Activity (OCI-Ly3 [10]): Active
- Activity (A2780 [15]): Active
- EC50 (OCI-Ly3 [16]): 14 nM
- Activity (OCI-Ly3 [23]): Active
- Activity (OCI-Ly3 [26]): Active
- Activity (A2780 [27]): Active
- Activity (A2780 [28]): Active
- EC50 (A2780 [29]): 27 nM
- Activity (A2780 [32]): Active
- Activity (OCI-Ly3 [38]): Active
- Activity (OCI-Ly3 [42]): Active
- Activity (A2780 [45]): Active
